Source: patent publication US20260217677A1, “ORGANIC COMPOUNDS AS NLRP3 INHIBITORS” (KODIAK SCIENCES, INC., priority 2023, published 2026)

Each compound was assayed on IL-1β release in U937 cells after NLRP3 activation (assay: IL-1β release inhibition in U937 cells (MSD V-Plex)). Settings: Homo sapiens, U-937, read-out: IL-1β IC50, Table 4; PMA-differentiated U937 cells, 1 μg/mL LPS 3 h, compound 30 min, 10 mM nigericin 1 h.
Protocol: Differentiating media was prepared by adding 20 nM phorbol 12-myristate 13-acetate (PMA) (AdipoGen AG-CN2-0010-M005) to growth medium. A cell suspension was prepared with differentiating media at 500K cells/mL. […] Plates were placed in an incubator for 90 hours. […] Differentiating media was removed and priming media was added to each well. The plates were placed in the incubator for three (3) hours. 20 mM compound DMSO stock solutions were prepared and were further diluted to 0.4 mM; This solution was serially diluted 6 times in a 1:5 ratio. A solvent control was included.
After three (3) hours of priming, all the media was removed. Next, assay media with compounds was added in duplicate columns. The plate was placed in an incubator for 30 min. Media with a final concentration of 10 mM nigericin was then added for one (1) hour. The supernatant was collected and frozen immediately at −80° C. The plate was transferred to −20° C. the next day and for later determination of cytokine IL-1ß levels.
The release of IL-1ß into the cell media was determined with the MSD® Multi-Spot Assay System (V-Plex, IL-1ß kit, K151KPD). Following the manufacturer's protocol (Alternate Protocol 3, Dilute-In-Plate), the level of IL-1ß in the above collected supernatant plate was measured using electro-chemiluminescent signals. Using MSD DISCOVERY WORKBENCH® analysis software, the signals were converted to the concentration of IL-1ß in each well. The IC50 values of the compounds were calculated using fitted non-linear regression curve in Graph Pad Prism software. The detection range of IL-1ß using MSD kit was approximately 0.15 to 600 μg/mL (based on various lots of standards purchased from MSD).

Row | SMILES | IC50
1 | Cc1cc(N[C@@H]2CCCN(CCNCC3CCS(=O)(=O)CC3)C2)nnc1-c1ccc(C(F)(F)F)cc1O [Example 109, (R)-4-(((2-(3-((6-(2-Hydroxy-4-(trifluoromethyl)phenyl)-5-methylpyridazin-3-yl)amino)piperidin-1-yl)ethyl)amino)methyl)tetrahydro-2H-thiopyran 1,1-dioxide] | 5 to 50 nM
2 | Cc1cc(N[C@@H]2CCCN(CC(=O)N3CCN[C@H](C)C3)C2)nnc1-c1ccc(C(F)(F)F)cc1O [Example 110, 2-((R)-3-((6-(2-Hydroxy-4-(trifluoromethyl)phenyl)-5-methylpyridazin-3-yl)amino)piperidin-1-yl)-1-((R)-3-methylpiperazin-1-yl)ethan-1-one] | 5 to 50 nM
3 | Cc1cc(N[C@@H]2CCCN(CC(=O)N3CCN[C@@H](C)C3)C2)nnc1-c1ccc(C(F)(F)F)cc1O [Example 111, 2-((R)-3-((6-(2-Hydroxy-4-(trifluoromethyl)phenyl)-5-methylpyridazin-3-yl)amino)piperidin-1-yl)-1-((S)-3-methylpiperazin-1-yl)ethan-1-one] | 5 to 50 nM
4 | Cc1cc(N[C@@H]2CCCN(CC(=O)N3C[C@H]4CNC[C@H]4C3)C2)nnc1-c1ccc(C(F)(F)F)cc1O [Example 112, 1-((3aR,6aS)-Hexahydropyrrolo[3,4-c]pyrrol-2 (1H)-yl)-2-((R)-3-((6-(2-hydroxy-4-(trifluoromethyl)phenyl)-5-methylpyridazin-3-yl)amino)piperidin-1-yl)ethan-1-one] | 5 to 50 nM
5 | Cc1cc(N[C@@H]2CCCN(CC(=O)N3CCNCC3)C2)nnc1-c1ccc2sccc2c1O [Example 113, (R)-2-(3-((6-(4-hydroxybenzo[b]thiophen-5-yl)-5-methylpyridazin-3-yl)amino)piperidin-1-yl)-1-(piperazin-1-yl)ethan-1-one] | < 5 nM
6 | Cc1cc(N[C@@H]2CCCN(C3CNC3)C2)nnc1-c1ccc2sccc2c1O [Example 114, (R)-5-(6-((1-(azetidin-3-yl)piperidin-3-yl)amino)-4-methylpyridazin-3-yl)benzo[b]thiophen-4-ol] | < 5 nM
